{"source": "patent US7951777B2", "about": "“Compositions and methods for treatment of cardiovascular disease” (Vectus Biosystems Limited, priority 2004, dated 2011)", "key": {"[1]": {"test_system": "isolated trabeculae from human hearts", "details": "atria and ventricles of hearts from previously healthy individuals; cited from earlier work"}, "[2]": {"test_system": "WKY rat fed a high salt diet and given L-NAME", "assay": "VIP infusion in model of myocardial fibrosis: high salt diet plus L-NAME", "assay_type": "in vivo", "description": "(§1) Three animal models of myocardial fibrosis were used (animals obtained from Australian Animal Resources, Perth, Western Australia, Australia) • i) WKY rat fed a high salt diet • ii) WKY rat fed a high salt diet and given L-NAME (ω-monomethyl-nitro-L-arginine, Sigma Chemical Co.) 10 mg/kg/day in the drinking water • iii) WKY rats with diabetes induced by streptozotocin injection 60 mg/kg\n(§2) In each model the rats were randomised to VIP (H-[…]NH2, (SEQ ID No. 1) obtained from Auspep, Australia) or vehicle control (Haemaccel, Aventis) infusion for 4 weeks via Alzet minipump (n=6-8 each experimental group). The dose of VIP was 5 pmol/kg/min.\n(§3) In models i) and ii) 14 week old WKY rats were commenced on high salt diet or high salt diet plus L-NAME. They underwent operative insertion of an Alzet minipump for infusion of VIP or vehicle. After 4 weeks the rats were anaesthetised and the hearts harvested. Myocardial VIP and myocardial fibrosis were quantitated.\n(§4) Myocardial VIP concentrations and myocardial fibrosis were quantitated.\n(§5) VIP was measured by radioimmunoassay in known manner (see Davis R. E., Shelley S., Macdonald G. J. & Duggan K. A. (1992) The effects of a high sodium diet on the metabolism and secretion of vasoactive intestinal peptide in the rabbit. J. Physiol. 451:17-23. Duggan K. A., Ye V. Z. C., Jones D. M. Davis R. E. & Macdonald G. J. (1995) Effects of Endopeptidase 24.11 blockade on plasma and tissue concentrations of vasoactive intestinal peptide Clin. Sci. 89:267-271). […]"}, "normal heart": {"test_system": "normal heart", "details": "cited from earlier work"}, "SHR and WKY rats": {"test_system": "SHR and WKY rats", "assay": "Preliminary four-week VIP infusion in rat models of myocardial fibrosis", "assay_type": "in vivo", "details": "VIP 7.2 nmol/kg/day via Alzet mini pump for four weeks, compared to control groups", "description": "Further preliminary experiments have been conducted on a number of animal models, which encompass a range of fibrous tissue replacement, varying from mild to moderate to severe. The experiments on the animal models encompassed a variety of aetiologies (alone and in combination) and a range of levels of induced fibrosis. For these experiments two types of rats were used, spontaneously hypertensive rats (SHR) and normotensive control Wistar-Kyoto rats (WKY). The WKY rats were given: 1) low salt diet, 2) high salt diet, or 3) L-NAME (ω-monomethyl-nitro-L-arginine; 10 mg/kg/day) plus high salt diet. The SHR rats were given low or high salt diets. The effect of VIP infusion in diabetic heart disease was also studied in the WKY rate with streptozotocin induced diabetes.\nIn each treatment group, rats were randomised to VIP (SEQ ID No. 1) or vehicle infusion (n=24 in each group) for four weeks. VIP was administered via Alzet mini pump at a rate of 7.2 nmol/kg/day.\nAfter four weeks, the rats were anaesthetised and the hearts were harvested. Myocardial VIP concentrations and myocardial fibrosis were quantitated."}, "[3]": {"test_system": "WKY rats with diabetes induced by streptozotocin injection", "assay": "VIP infusion in model of myocardial fibrosis: streptozotocin diabetes", "assay_type": "in vivo, rat", "details": "VIP 5 pmol/kg/min for 4 weeks after 8 weeks of diabetes; FIG. 6", "description": "as §1, §2\nIn model iii) rats were injected with streptozotocin 60 mg/kg at 14 weeks of age. After 8 weeks the diabetic rats were randomised to VIP infusion (5 pmol/kg/min) (SEQ ID No. 1) or no treatment. VIP was administered as above. […]\nas §4, §5"}, "isolated rat heart": {"test_system": "isolated rat heart", "details": "heart perfused with VIP before ischaemia and reperfusion; cited from earlier work"}, "WKY rats": {"test_system": "WKY rats", "assay": "Acute VIP infusion, uptake of VIP by the myocardium", "assay_type": "in vivo, rat", "description": "In preliminary studies a series of acute infusion experiments have been conducted in animal models.\nFourteen week old WKY rats were randomised to low salt diet (0.008%), intermediate salt diet (2.2%), high salt diet (4.4%) or high salt diet plus L-NAME (10 mg/kg/day) in the drinking water for 4 weeks (n=16 rats per group). On the day of the experiment the rats were anaesthetised and venous and arterial cannulae inserted. After a one hour rest equilibration period the rats were randomised to vehicle control (Haemaccell, Aventis) or VIP (10 pmol/kg/min) infusion (SEQ ID No. 1) for one hour at an infusion rate of 0.017 ml/min. The hearts were then harvested, myocardial VIP concentrations were measured and myocardial fibrosis quantitated.\nThe difference between the mean myocardial VIP concentrations after VIP or control infusion is a measure of VIP uptake by the heart.\nas §5"}, "[4]": {"test_system": "WKY rat fed a high salt diet", "assay": "VIP infusion in model of myocardial fibrosis: high salt diet", "assay_type": "in vivo", "description": "as §1, §2, §3, §4, §5"}, "[5]": {"test_system": "WKY rats on high salt diet", "assay": "Effect of VIP fragments on myocardial fibrosis", "assay_type": "in vivo, rat", "details": "for degree of myocardial fibrosis: 5 pmol/kg/min for 4 weeks via Alzet minipump, compared with vehicle control, Masson Trichrome sections; for effectiveness on myocardial fibrosis relative to VIP: all peptides 5 pmol/kg/min for 4 weeks, FIGS. 8 to 10", "description": "To determine whether smaller VIP related peptides had any of the biological activities of the complete VIP molecule, particularly in reducing myocardial fibrosis, the degree of myocardial fibrosis after treatment with VIP(1-12) (SEQ ID No. 2) at 5 pmol/kg/min and VIP (6-28) (SEQ ID No. 3) at 5 pmol/kg/min for 4 weeks via Alzet minipump was compared with the complete VIP (5 pmol/kg/min) (SEQ ID No. 1) and vehicle control. The VIP fragments were purchased from Auspep (Melbourne, Australia).\nBriefly, 14 week old WKY rats were commenced on high salt diet as described earlier. They underwent operative insertion of an Alzet minipump for infusion of VIP peptide or vehicle. After 4 weeks the rats were anaesthetised, the hearts harvested and myocardial fibrosis quantitated on Masson Trichrome sections using Image Pro Plus Version 5 (Cybernetics). […] FIGS. 8 to 10 show the results of these studies."}}, "note": "“Also recorded” adds a separate entry of the source."}
{"molecule": "CC[C@H](C)[C@H](NC(=O)[C@H](CO)NC(=O)[C@H](CC(N)=O)NC(=O)[C@H](CC(C)C)NC(=O)[C@H](Cc1ccc(O)cc1)NC(=O)[C@H](CCCCN)NC(=O)[C@H](CCCCN)NC(=O)[C@@H](NC(=O)[C@H](C)NC(=O)[C@H](CCSC)NC(=O)[C@H](CCC(N)=O)NC(=O)[C@H](CCCCN)NC(=O)[C@H](CCCNC(=N)N)NC(=O)[C@H](CC(C)C)NC(=O)[C@H](CCCNC(=N)N)NC(=O)[C@@H](NC(=O)[C@H](Cc1ccc(O)cc1)NC(=O)[C@H](CC(N)=O)NC(=O)[C@H](CC(=O)O)NC(=O)[C@@H](NC(=O)[C@H](Cc1ccccc1)NC(=O)[C@@H](NC(=O)[C@H](C)NC(=O)[C@H](CC(=O)O)NC(=O)[C@H](CO)NC(=O)[C@@H](N)Cc1c[nH]cn1)C(C)C)[C@@H](C)O)[C@@H](C)O)C(C)C)C(=O)N[C@@H](CC(C)C)C(=O)N[C@@H](CC(N)=O)C(N)=O", "note": "[VIP]", "values": [{"measurement": "ionotropic effect", "setting": "[1]", "value": "direct positive ionotropic effect"}, {"measurement": "regression of existing myocardial fibrosis", "setting": "[2]; VIP 5 pmol/kg/min 4 weeks, compared with untreated 14 week old rats, FIG. 5", "value": "regression of myocardial fibrosis"}, {"measurement": "myocardial fibrosis index", "setting": "[2]; VIP 5 pmol/kg/min for 4 weeks via Alzet minipump vs vehicle control, L-NAME 10 mg/kg/day, FIG. 3", "value": "significantly lower"}, {"measurement": "myocardial content of VIP", "setting": "[2]; after four week intravenous infusion of VIP or vehicle control, FIG. 7B", "value": "clear association between the degree of fibrosis and uptake of exogenous VIP"}, {"measurement": "uptake of injected VIP by the heart", "setting": "normal heart", "value": "not taken up by the normal heart"}, {"measurement": "myocardial fibrosis index", "setting": "SHR and WKY rats", "value": "significantly lower"}, {"measurement": "regression of existing myocardial fibrosis", "setting": "[3]", "value": "regression of myocardial fibrosis"}, {"measurement": "myocardial function (left ventricular functions, coronary flow, tissue injury)", "setting": "isolated rat heart", "value": "significant improvement of myocardial function"}, {"measurement": "difference between mean myocardial VIP concentrations after VIP or control infusion (VIP uptake by the heart)", "setting": "WKY rats; VIP 10 pmol/kg/min for one hour, low, intermediate, high salt diet or high salt diet plus L-NAME, FIG. 1", "value": "As fibrosis worsens the amount of VIP taken up by the heart increases; also recorded: increase as the degree of fibrosis increased"}, {"measurement": "uptake of VIP by the heart from the plasma", "setting": "WKY rats; acute infusion experiments in animal models with differing levels of fibrosis", "value": "more avid with increasing degrees of fibrosis; also recorded: the higher the level of fibrosis, the greater the uptake of VIP by the heart"}, {"measurement": "regression of existing myocardial fibrosis", "setting": "[4]; VIP 5 pmol/kg/min 4 weeks, compared with untreated 14 week old rats, FIG. 4", "value": "regression of myocardial fibrosis"}, {"measurement": "myocardial fibrosis index", "setting": "[4]; VIP 5 pmol/kg/min for 4 weeks via Alzet minipump vs vehicle control, FIG. 2", "value": "significantly lower"}, {"measurement": "myocardial content of VIP", "setting": "[4]; after four week intravenous infusion of VIP or vehicle control, FIG. 7A", "value": "clear association between the degree of fibrosis and uptake of exogenous VIP"}]}
{"molecule": "VIP(6-28): active fragment of VIP, residues 6-28, purchased from Auspep (FTDNYTRLRKQMAVKKYLNSILN; listed as Homo sapiens)", "values": [{"measurement": "degree of myocardial fibrosis", "setting": "[5]", "value": "decreased the degree of myocardial fibrosis"}, {"measurement": "effectiveness on myocardial fibrosis relative to VIP", "setting": "[5]", "value": "as effective as VIP"}]}
{"molecule": "VIP(1-12): active fragment of VIP, residues 1-12, purchased from Auspep (HSDAVFTDNYTR; listed as Homo sapiens)", "values": [{"measurement": "degree of myocardial fibrosis", "setting": "[5]", "value": "decreased the degree of myocardial fibrosis"}, {"measurement": "effectiveness on myocardial fibrosis relative to VIP", "setting": "[5]", "value": "approximately ⅓"}]}
